Assay results: patent US20090298820A1, “3-SUBSTITUTED-1H-PYRROLO[2,3-B]PYRIDINE AND 3-SUBSTITUTED-1H-PYRROLO[3,2-B]PYRIDINE COMPOUNDS, THEIR USE AS MTOR KINASE AND PI3 KINASE INHIBITORS, AND THEIR SYNTHESES” (Wyeth, priority 2008, published 2009)
Where two headings read alike, the source gives them in different places.

Columns and labels:
[1] = tested on: human tumor xenograft models; conditions: cited from earlier work
[2] = target: T1, mTOR (Homo sapiens, UniProt P42345); conditions: read-out: mTOR complexes / mTOR enzymes IC50; literature value; cited from earlier work
[3] = tested on: acute lymphoblastic leukemia; conditions: NOS/SCID xenograft; cited from earlier work
[4] = target: PI3Kα (Homo sapiens, UniProt P42336); test: PI3K-alpha fluorescence polarization assay; format: biochemical; conditions: read-out: PI3Kα Median IC50
[5] = target: PI3Kγ (Homo sapiens, UniProt P48736); test: PI3K-gamma fluorescence polarization assay; format: biochemical; conditions: read-out: PI3Kγ Median IC50
[6] = target: T1, mTOR; test: mTOR enzyme assay (DELFIA format, His6-S6K substrate); format: biochemical; conditions: read-out: mTOR Kinase Median IC50

Sequence of PI3Kγ (P48736 whole entry, species assumed): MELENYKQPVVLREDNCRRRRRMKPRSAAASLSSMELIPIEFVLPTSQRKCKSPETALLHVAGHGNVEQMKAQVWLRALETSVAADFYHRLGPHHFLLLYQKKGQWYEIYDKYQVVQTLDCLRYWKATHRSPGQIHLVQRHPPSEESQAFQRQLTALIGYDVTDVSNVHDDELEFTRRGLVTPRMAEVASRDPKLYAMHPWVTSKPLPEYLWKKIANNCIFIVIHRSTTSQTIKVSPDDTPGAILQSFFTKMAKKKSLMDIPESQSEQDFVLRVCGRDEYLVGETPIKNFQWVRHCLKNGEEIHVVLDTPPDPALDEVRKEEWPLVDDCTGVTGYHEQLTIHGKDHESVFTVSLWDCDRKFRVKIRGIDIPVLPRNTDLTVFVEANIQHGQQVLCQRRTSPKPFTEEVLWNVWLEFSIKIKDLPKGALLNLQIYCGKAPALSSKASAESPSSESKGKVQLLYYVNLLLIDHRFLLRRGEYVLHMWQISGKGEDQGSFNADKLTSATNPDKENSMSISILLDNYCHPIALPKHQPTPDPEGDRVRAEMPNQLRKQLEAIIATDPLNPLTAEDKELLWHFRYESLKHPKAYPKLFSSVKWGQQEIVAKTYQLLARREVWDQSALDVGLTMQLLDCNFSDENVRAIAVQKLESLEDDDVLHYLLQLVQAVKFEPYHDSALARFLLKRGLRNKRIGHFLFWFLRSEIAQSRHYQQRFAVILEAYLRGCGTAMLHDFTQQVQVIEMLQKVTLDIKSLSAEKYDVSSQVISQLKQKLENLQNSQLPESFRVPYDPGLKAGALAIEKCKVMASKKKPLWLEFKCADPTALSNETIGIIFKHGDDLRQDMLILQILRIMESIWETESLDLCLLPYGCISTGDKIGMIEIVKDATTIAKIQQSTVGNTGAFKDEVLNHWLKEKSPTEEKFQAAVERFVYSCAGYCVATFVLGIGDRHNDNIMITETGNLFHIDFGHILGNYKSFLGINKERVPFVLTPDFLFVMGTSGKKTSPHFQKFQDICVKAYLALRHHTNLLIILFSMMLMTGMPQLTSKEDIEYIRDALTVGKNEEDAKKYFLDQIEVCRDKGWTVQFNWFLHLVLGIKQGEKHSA
Sequence of PI3Kα (P42336 whole entry, species assumed): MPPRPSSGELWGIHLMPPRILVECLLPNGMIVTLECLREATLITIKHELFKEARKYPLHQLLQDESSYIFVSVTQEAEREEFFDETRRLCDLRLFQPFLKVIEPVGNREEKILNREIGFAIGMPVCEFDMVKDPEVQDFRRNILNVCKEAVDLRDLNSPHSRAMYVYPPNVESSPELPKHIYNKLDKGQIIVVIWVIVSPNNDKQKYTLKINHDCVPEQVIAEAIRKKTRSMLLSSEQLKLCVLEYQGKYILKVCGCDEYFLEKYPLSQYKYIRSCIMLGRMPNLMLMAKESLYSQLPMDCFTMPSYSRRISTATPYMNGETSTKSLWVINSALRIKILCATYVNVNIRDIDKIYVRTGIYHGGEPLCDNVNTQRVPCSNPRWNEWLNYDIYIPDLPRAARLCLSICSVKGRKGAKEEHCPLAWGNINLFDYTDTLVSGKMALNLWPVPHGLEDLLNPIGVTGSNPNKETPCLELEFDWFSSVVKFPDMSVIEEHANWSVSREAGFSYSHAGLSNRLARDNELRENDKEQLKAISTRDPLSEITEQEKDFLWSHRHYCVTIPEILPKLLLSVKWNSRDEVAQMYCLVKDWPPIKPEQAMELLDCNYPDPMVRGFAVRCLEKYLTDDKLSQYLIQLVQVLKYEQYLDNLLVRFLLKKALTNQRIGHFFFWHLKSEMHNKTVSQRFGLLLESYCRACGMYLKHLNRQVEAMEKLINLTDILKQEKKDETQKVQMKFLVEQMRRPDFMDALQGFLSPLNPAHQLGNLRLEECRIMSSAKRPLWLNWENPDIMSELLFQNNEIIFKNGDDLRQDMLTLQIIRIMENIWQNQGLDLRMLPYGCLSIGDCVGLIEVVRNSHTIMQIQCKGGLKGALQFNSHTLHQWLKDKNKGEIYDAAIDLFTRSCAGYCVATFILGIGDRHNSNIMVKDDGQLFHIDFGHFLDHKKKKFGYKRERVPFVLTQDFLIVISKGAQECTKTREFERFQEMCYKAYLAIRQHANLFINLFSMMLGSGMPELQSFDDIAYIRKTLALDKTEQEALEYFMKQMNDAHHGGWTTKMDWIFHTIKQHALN
Sequence of PI3Kα (P27986 whole entry partner, species assumed): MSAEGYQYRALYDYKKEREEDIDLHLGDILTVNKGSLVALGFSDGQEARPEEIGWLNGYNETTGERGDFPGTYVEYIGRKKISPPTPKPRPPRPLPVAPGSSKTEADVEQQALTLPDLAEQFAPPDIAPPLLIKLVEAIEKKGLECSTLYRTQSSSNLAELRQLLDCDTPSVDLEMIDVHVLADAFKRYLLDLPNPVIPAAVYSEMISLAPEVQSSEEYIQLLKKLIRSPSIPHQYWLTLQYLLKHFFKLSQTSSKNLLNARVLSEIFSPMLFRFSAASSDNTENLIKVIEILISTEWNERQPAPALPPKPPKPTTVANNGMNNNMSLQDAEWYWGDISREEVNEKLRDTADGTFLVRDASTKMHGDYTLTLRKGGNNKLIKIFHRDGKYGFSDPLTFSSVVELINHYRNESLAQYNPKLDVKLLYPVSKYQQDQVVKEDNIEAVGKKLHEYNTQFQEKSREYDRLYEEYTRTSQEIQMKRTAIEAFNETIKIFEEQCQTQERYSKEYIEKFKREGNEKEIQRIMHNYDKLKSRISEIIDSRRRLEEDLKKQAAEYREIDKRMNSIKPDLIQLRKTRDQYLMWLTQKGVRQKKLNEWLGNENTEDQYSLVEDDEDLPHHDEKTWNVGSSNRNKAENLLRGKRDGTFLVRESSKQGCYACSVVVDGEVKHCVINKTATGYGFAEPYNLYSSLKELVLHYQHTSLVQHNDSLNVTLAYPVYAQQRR

IC50 [4] | IC50 [5] | IC50 [6] | melting point | Compound | further results
 |  |  |  | Cn1c(=O)n(-c2ccc(C(C)(C)C#N)cc2)c2c3cc(-c4cnc5ccccc5c4)ccc3ncc21 [NVP-BEZ-235, 2-methyl-2-(4-(3-methyl-2-oxo-8-(quinolin-3-yl)-2,3-dihydro-1H-imidazo[4,5-c]quinolin-1-yl)phenyl)propanenitrile] | activity against human tumor models ([1]; prostrate (PC-3) and glioblastoma (U-87)): demonstrated activity
 |  |  |  | FC(F)c1nc2ccccc2n1-c1nc(N2CCOCC2)nc(N2CCOCC2)n1 [ZSTK474, 2-(2-difluoromethylbenzoimidazol-1-yl)-4,6-dimorpholino-1,3,5-triazine] | tumor growth inhibition ([1]; chronic oral administration, 400 mg/kg, A549, PC-3, WiDr): completely inhibited growth; IC50 [2]: > 10000 nM
 |  |  |  | Oc1cccc(-c2nc(N3CCOCC3)c3oc4ncccc4c3n2)c1 [PI103, 3-(4-(4-morpholinyl)pyrido[3′,2′:4,5]furo[3,2-d]pyrimidin-2-yl)phenol] | activity against human tumor models ([1]; I.P. dosing in mice, U87MG, PC3, MDA-MB-468, MDA-MB-435, HCT 116, SKOV3, IGROV-1): demonstrated activity
 |  |  |  | CO[C@H]1C[C@@H]2CC[C@@H](C)[C@@](O)(O2)C(=O)C(=O)N2CCCC[C@H]2C(=O)O[C@H]([C@H](C)C[C@@H]2CC[C@@H](OC(=O)C(C)(CO)CO)[C@H](OC)C2)CC(=O)[C@H](C)/C=C(\C)[C@@H](O)[C@@H](OC)C(=O)[C@H](C)C[C@H](C)/C=C/C=C/C=C/1C [Torisel] | activity in xenograft mouse model [3]: active
89 nM | 187 nM | 3.5 nM | 274 to 275 °C | Cn1cc(/C=C2\Oc3cccc(O)c3C2=O)c2c(-c3ccccc3)ccnc21 [Compound 31, (2Z)-4-hydroxy-2-[(1-methyl-4-phenyl-1H-pyrrolo[2,3-b]pyridin-3-yl)methylene]-1-benzofuran-3(2H)-one] | 
2030 nM | 2040 nM | 10.5 nM | 165 to 175 °C (dec.) | CN(C)C(=O)C1CCN(c2ccnc3c2c(/C=C2\Oc4ccc(NC(=O)Nc5cccnc5)cc4C2=O)cn3C)CC1 [Compound 189, N,N-dimethyl-1-{1-methyl-3-[(Z)-{3-oxo-5-[(pyridin-3-ylcarbamoyl)amino]-1-benzofuran-2(3H)-ylidene}methyl]-1H-pyrrolo[2,3-b]pyridin-4-yl}piperidine-4-carboxamide] | 

Compound | IC50 [4] | IC50 [5] | IC50 [6] | melting point | further results
Cn1cc(/C=C2\Oc3cccc(O)c3C2=O)c2c(N3CCC(C(=O)N4C5CCCC4COC5)CC3)ccnc21 [Compound 312, (2Z)-4-hydroxy-2-({1-methyl-4-[4-(3-oxa-9-azabicyclo[3.3.1]non-9-ylcarbonyl)piperidin-1-yl]-1H-pyrrolo[2,3-b]pyridin-3-yl}methylidene)-1-benzofuran-3(2H)-one] | 67 nM | 453 nM | 3.2 nM | 210 to 218 °C | 
